In patent US9895337B2, “Compositions containing monoacetyldiacylglycerol compound as an active ingredient for preventing or treating rheumatoid arthritis” (ENZYCHEM LIFESCIENCES CORPORATION, priority 2013, dated 2018):

What was measured:
STAT-1 = assay: Inhibition of PMA-induced STAT-1 phosphorylation in NK-92 cells (western blot); assay type: cell-based, Human; conditions: PMA-induced (FIG. 2B)
Description: Human cell lines NK-92, U937, A549 and HepG2 (American Type Culture Collection, ATCC, Rockville, Md.) were cultured at 37° C. under 5% CO2 humid conditions. NK-92 cells were cultured in alpha-MEM media (Life Technologies, Karlsruhe, Germany) containing 10% Fetal Calf Serum (FCS, HyClone, Logan, Utah), 2 mM […], 100 μg/ml penicillin, 100 μg/ml streptomycin (Life Technologies). U937, A549 and HepG2 cells were cultured in RPMI media containing 10% Fetal Calf Serum.
Cells treated in EC-18 and PMA (Phobol 12-myristate 13-acetate) were lysed with cold SDS lysis buffer [(50 mM HEPES, 150 mM NaCl, 0.2 mM EDTA, 0.5% NP-40, 0.1% SDS, 1 mM Na3VO4, 10 mM NaF, and complete Protein Inhibitor Cocktail (Roche)] for 30 minutes on ice. After cell lysis, the aqueous solution was separated from the insoluble precipitate by centrifuging the cell lysates for 30 minutes at 13,000 rpm in a high-speed centrifuge. After protein quantification, the aqueous solution was separated in 10 to 12% SDS-PAGE by electrophoresis. Proteins separated in the gel were transferred into PVDF membrane (Millipore, Billerica, Mass., USA) at 100V for 2 hours. […]

[1] = tested on: collagen-induced arthritis in male DBA/1J mouse; assay: Arthritis animal model induced by bovine type II collagen; assay type: in vivo; conditions: for histopathological arthritis score of knee joint: knee joint of both hind legs, vs negative control (FIG. 6); for histopathological arthritis score of knee joint / concentration of IL-6 in serum: EC-18 125, 500, 2,000 mg/kg oral, Remicade 20 mg/kg i.p., methotrexate 2.5 mg/kg oral; for concentration of IL-6 in serum: serum at day of tissue excision, once a day for five weeks, vs negative control (FIG. 4)
Description: For arthritis animal model experiment, arthritis was induced in male DBA/1J mouse by administering bovine type II collagen to the mouse. Efficacy of EC-18 for treating (or improving) arthritis was evaluated by repeatedly administering EC-18 to the mouse orally. For comparison, Remicade (positive control 1) was administered intraperitoneally and methotrexate (positive control 2) was administered orally. The experiment included seven groups: normal group (G1), negative control (G2), 125 mg/kg, 500 mg/kg and 2,000 mg/kg of EC-18 (EC-18 treatment groups, G3, G4, G5), 20 mg/kg of Remicade (Positive control 1, G6) and 2.5 mg/kg of Methotrexate (Positive control 2, G7). Each group consists of 10 mice. Olive oil was administered to normal group (G1) and negative control group (G2) as an excipient. In all groups, administration was made once a day for five weeks (a total of 35 administrations). Remicade (G6) was administered intraperitoneally, whereas EC-18, methotrexate and olive oil were administered orally in force. For all groups except normal Group (G1), arthritis was induced by immunizing animals twice with bovine type II collagen and complete Freund's adjuvant or incomplete Freund's adjuvant emulsion. During the observation period, common arthritis symptoms were observed once a day, weigh measured once a week, arthritic score evaluation made with the naked eye twice a week, foot thickness measured twice a week.

Molecule	STAT-1 phosphorylation (STAT-1)	histopathological arthritis score of knee joint [1]	concentration of IL-6 in serum [1]	crushing of cartilage and increase of Pannus (stained arthritic tissue) ([1]; EC-18 500 mg/kg oral (G4), Remicade 20 mg/kg i.p. (G6), vs negative control (FIGS. 7 and 8))
CCCCC/C=C\C/C=C\CCCCCCCC(=O)OC(COC(C)=O)COC(=O)CCCCCCCCCCCCCCC (stereo not drawn) [EC-18, 1-palmitoyl-2-linoleoyl-3-acetylglycerol]	does not inhibit			
CN(Cc1cnc2nc(N)nc(N)c2n1)c1ccc(C(=O)N[C@@H](CCC(=O)O)C(=O)O)cc1 [Methothrexate, methotrexate]		reduced	reduced	
Remicade: positive control 1, administered intraperitoneally at 20 mg/kg		reduced	reduced	reduced
